# Test results reported in patent publication US20240376129A1, “METALLODRUG THERAPEUTIC COMPOUNDS AND PRODRUGS OF METALLODRUG THERAPEUTIC COMPOUNDS” (Dublin City University, priority 2021, published 2024).
# How the values were obtained:
# [1] = tested on: supercoiled pUC19 DNA; assay: DNA condensation of supercoiled pUC19 by gel electrophoresis; assay type: biochemical; details: for DNA condensation / aggregation effect: supercoiled pUC19, tested at 100 and 500 μM, 37° C., 90 min; for DNA condensation activity: supercoiled pUC19, at 100 μM
# Method: Preparation of solutions. Tri-Click samples were initially prepared in DMF and further diluted in HEPES buffer (80 mM). Metal complexes of the Tri-Click series were prepared in-situ by co-incubating with copper(II) nitrate trihydrate, manganese (II) chloride tetrahydrate or zinc(II) acetate dihydrate for 30 min at 37° C. prior to DNA addition.
# DNA nuclease and condensation studies. Reactions were carried out in 80 mM HEPES (pH 7.4) unless otherwise stated and followed the general procedure: a total volume of 20 μL with 25 mM NaCl, 400 ng pUC19 at varying concentrations of test compounds (0.25-500 μM) were incubated at 37° C. for either 90 min, 6 h, 12 h or 24 h. Reactions were quenched by adding 6× loading buffer (Fermentas) containing 10 mM Tris-HCl, 0.03% bromophenol blue, 0.03% xylene cyanole FF, 60% glycerol, 60 mM EDTA and samples were loaded onto an agarose gel (1.2%) containing 4 μL EtBr. Electrophoresis was completed at 70 V for 1 h in 1×TAE buffer. DNA studies conducted in the presence of reductant were supplemented with 1 mM Na-L-ascorbate and incubated at 37° C. for 30 min. Electrophoresis was carried out at 70 V for 90 minutes in 1×TAE buffer and photographed using a UV transilluminator.
# The DNA recognition properties of the TC series, along with the control compounds, were probed using electrophoresis experiments with supercoiled pUC19 DNA. TC1 was examined across a wide concentration range and found to condense DNA at high concentrations between 250 and 500 μM (FIG. 2a, lanes 11-13).
# [2] = tested on: calf-thymus DNA (ctDNA); assay: Competitive ethidium bromide displacement assay, calf-thymus DNA; assay type: binding
# Method: (§1) Competitive ethidium bromide displacement assay. The DNA binding affinity of the tripodal series was determined over a 2 h time period using calf-thymus DNA and synthetic alternating co-polymers poly[d(A-T)2)] and poly[d(G-C)2] by ethidium bromide fluorescence quenching in a similar manner to the high throughput method previously reported by Kellett et al. (McCann, M., McGinley, J., Ni, K., O'Connor, M., Kavanagh, K., McKee, V., Colleran, J., Devereux, M., Gathergood, N., Barron, N. et al. (2013) A new phenanthroline-oxazine ligand: synthesis, coordination chemistry and atypical DNA binding interaction. Chem. Commun., 49, 2341-2343). Each drug concentration was measured in triplicate, on at least two separate occasions, and the apparent binding constants were calculated using Kapp=Ke×12.6/C50 where Ke=9.5×10^6 M^−1.
# [3] = tested on: poly[d(A-T)2]; assay: Competitive ethidium bromide displacement assay, poly[d(A-T)2]; assay type: binding; details: A-T duplex polymer, EtBr displacement
# Method: as §1
# [4] = tested on: poly[d(G-C)2]; assay: Competitive ethidium bromide displacement assay, poly[d(G-C)2]; assay type: binding; details: EtBr displacement
# Method: as §1
Compound,DNA condensation / aggregation effect [1],DNA condensation activity [1],also measured
"Cc1c(Cn2cc(-c3ccc(N(C)C)cc3)nn2)c(C)c(Cn2cc(-c3ccc(N(C)C)cc3)nn2)c(C)c1Cn1cc(-c2ccc(N(C)C)cc2)nn1 [TC7, Tri-Click 4-ethynyl-N,N-dimethylaniline]",slight aggregation effects,,
"Cc1c(Cn2cc(CN)nn2)c(C)c(Cn2cc(CN)nn2)c(C)c1Cn1cc(CN)nn1 [TC1, Tri-Click propargylamine]",,,"apparent DNA binding constant (Kapp) ([2]; ctDNA, EtBr displacement): ~10^6 M^−1; binding affinity to duplex DNA (summary) ([2]; duplex DNA, conclusion summary over ctDNA and co-polymers): 10^5-10^6 M^−1; apparent DNA binding constant (Kapp) [3]: ~10^6 M^−1; apparent DNA binding constant (Kapp) [4]: ~10^5 M^−1"
"Cc1c(Cn2cc(-c3cccc(N(C)C)c3)nn2)c(C)c(Cn2cc(-c3cccc(N(C)C)c3)nn2)c(C)c1Cn1cc(-c2cccc(N(C)C)c2)nn1 [TC6, Tri-Click 3-ethynyl-N,N-dimethylaniline]",slight aggregation effects,,
"2,4,6-Tris-(1,2-ethanediamine)-mesitylene [T2]",,highly active,
"Cc1c(CN)c(C)c(CN)c(C)c1CN [T1, 2,4,6-Tris-(aminomethyl)-mesitylene]",mildly condense pUC19,,
"2,4,6-Tris-(1,3-propanediamine)-mesitylene [T3]",,highly active,
